From patent publication US20020155088A1, “Tumor treatment by using oligoaniline” (priority 2001, published 2002)

Assays:
ferricytochrome C = assay: In vitro irradiation-induced superoxide generation (ferricytochrome C reduction); format: biochemical; settings: 25 μM A16S aqueous solution, fluorescence light 27 watts, irradiation time 0, 30, 60, 90 minutes
Protocol: The mixture thus obtained was added into wells of a 24-well plate, and exposed to fluorescence light source (27 watts) for 0-90 minutes. The distance between the plate cover and the light source was 5-6 cm. The reduction extent of ferricytochrome C was evaluated based on its absorbance at 550 nm, which corresponded to the increase of the quantity of reduced ferrocytochrome C.

[1] = tested on: Fibrosarcoma cells (CCRC60037) and sarcoma 180 cells; assay: In vitro irradiation-induced cytotoxicity based on tumor cell viability (MTT/formazon)
Protocol: An in vitro inhibition assay can be performed to preliminarily evaluate an oligoaniline's ability to inhibit the growth of tumor cells. For example, an oligoaniline solution is added to a pre-incubated cell suspension. Subsequently, the cell suspension is irradiated with fluorescence light, followed by further incubation. A 3-(4,5-dimethylthiazol-2-yl)-2,5-diphenyl-tetrazolium bromide solution is then added to the cell suspension to react with mitochrondrial dehydrogenase to form formazon, which is extracted with dimethyl sulfoxide (DMSO). The DMSO extract solution is immediately used for optical measurement to determine the formazon quantity, which correlates with the quantity of dehydrogenase or the relative number of the living cells.
Two types of tumor cells used in this study were prepared as follows: Fibrosarcoma cells (CCRC60037) and sarcoma 180 cells (obtained form Biochemical Institute of Chung Shan Medical and Dental College, Taiwan) were maintained and cultured in an cc-modified eagle medium (MEM) containing L-glutamine and phenol red, 10% fetal bovine serum, and antibiotics (100 units/mL of penicillin G and 100 μg/mL streptomycin sulfate). The cells were incubated in the dark in 95% humidified air plus 5% CO2, harvested by treatment with trypsin-EDTA, and then suspended in an α-MEM at the concentration of 1×10^4 cells/mL.
The cell suspension thus obtained was placed in wells of a 24-well plate (500 μL each) and pre-incubated at 37° C. for 24 hours. A16S solutions of various concentrations (0-10 μM) were then added to the wells (500 μL each). The wells were irradiated with fluorescence light (27 watts) for 0-60 minutes. The distance between the plate cover and the light source was 5-6 cm. After irradiation, the cells were further incubated for 48 hours. A solution of 3-(4,5-dimethylthiazol-2-yl)-2,5-diphenyl-tetrazolium bromide (0.5% in PBS; 100 μL each) was then added to each cell suspension, thereby causing the cells to produce formazon. After incubation at 37° C. for 3 hours, the suspension medium was discarded. Formazon formed in the cells from each well was extracted with DMSO (1.0 mL), and the DMSO extract solution was immediately measured for absorbance at […]. The absorbance directly correlated with the quantity of formazon, and thus with the quantity of dehydrogenase enzyme or the relative number of the living cells (i.e., viability). […] A maximal photodynamic cytotoxicity efficacy of >90% was obtained at an A16S concentration of 5.0-10.0 μM and an irradiation time of 60 minutes.

[2] = tested on: Murine sarcoma 180 cells (subcutaneous tumors); assay: In vivo photodynamic therapy study in tumor-bearing mice; parameters: species or system male ICR mice; settings: 10 mg/kg intraperitoneal
Description: Oligoanilines that show efficacy in preliminary studies can be further tested to confirm their efficacy by an in vivo assay on tumor-bearing mice. For example, see Chiang, et al. Proc. Electrochem. Soc., 1999, 99-12, 238-249. More specifically, a tumor-bearing mouse can be first administered with an oligoaniline to be tested in PBS close to the tumor site. The mouse is then kept in the dark while the oligoaniline is circulated to the tumor site. The tumor site is exposed by removing the hair on and around it, and then irradiated with a laser beam or other light source. After the irradiation, the growth of the tumor in the mouse is examined at different time intervals. The inhibitory effect can be evaluated by measuring the body weights of the mouse and the volumes of the tumor. After the mouse is sacrificed, the final body weight, the weights of various organs, and the final volume and weight of the tumor are measured; and blood is collected for biochemistry and hematology analyses. The data are evaluated used to determine the photodynamic therapeutic and other effects. […]
The mice in groups (1) and (2) were subsequently kept in the dark for 24 hours, and then anesthetized with avertine (0.3 mL/head). […] After the irradiation, the body weights and tumor volumes of the mice were measured every 5 days for 30 days. […]

Sulfobutylated Hexadecaaniline [A16S]
amount of superoxide free radicals (ferrocytochrome C absorbance at 550 nm) (ferricytochrome C): increased as the irradiation time increased | cell viability ([1]; A16S 0-10 μM, fluorescence light 27 watts, irradiation 0-60 minutes, 48 hours further incubation): decreased as the A16S dosage and irradiation time increased | maximal photodynamic cytotoxicity efficacy ([1]; A16S 5.0-10.0 μM, irradiation time 60 minutes): > 90% | IC50 ([1]; irradiation time 60 minutes): 1000 nM | viable cells ([1]; irradiation time 60 minutes, A16S concentration increased from 0 to 2.5 μM): a sharp loss of viable cells was observed | cytotoxicity in the absence of light irradiation ([1]; no irradiation, highest A16S concentration 10.0 μM): no cytotoxicity was observed | average tumor weight relative to tumor control group ([2]; laser 633 nm 100 J/cm^2, day 30): about 40% | tumor growth rates versus tumor control group ([2]; laser 633 nm 100 J/cm^2, entire 30 day study period): much lower
